Structures can show the parent of a compound that is named as a salt.

`Cc1ccnc(C(c2cc(F)ccc2F)S(=O)(=O)c2ccc(Cl)cc2)c1` (stereo not drawn) [Example 16, 2-[[(4-Chlorophenyl)sulfonyl]-(2,5-difluorophenyl)methyl]-4-methylpyridine]: the melting point (as a rule, the temperature, or range, at which the solid turns liquid) was in the range of 116 to 117 °C.

In turn, `Fc1ccc(F)c(C(Sc2ccc(Cl)cc2)c2cc(Cl)ncc2Cl)c1` (stereo not drawn) [Example 54, 2,5-Dichloro-4-[(4-chlorophenylthio)-(2,5-difluorophenyl)methyl]pyridine] showed a melting point of 128 to 129 °C.

For `Cl.O=S(=O)(c1ccc(Cl)cc1)C(c1cc(F)ccc1F)C1CCNCC1` (stereo not drawn), the melting point lay in the range of 184 to 190 °C.

On to `O=S(=O)(c1ccc(Cl)cc1)C(c1ccc(CN2CCCCC2)cn1)c1cc(F)ccc1F` (stereo not drawn) [Example 48, 2-[(4-Chlorophenylsulfonyl)-(2,5-difluorophenyl)methyl]-5-(piperidin-1-ylmethyl)pyridine], for which the melting point lay in the range of 113 to 114 °C.

Regarding `NCCNC(=O)c1ccc(C(c2cc(F)ccc2F)S(=O)(=O)c2ccc(Cl)cc2)nc1` (stereo not drawn) (as salt: hydrochloride) [Example 139, N-(2-Aminoethyl)-6-[(4-chlorophenylsulfonyl)(2,5-difluorophenyl)methyl]nicotinamide], the melting point was > 250 °C (dec.).

For the molecule `O=S(=O)(c1ccc(Cl)cc1)C(c1cccc(CCc2ccccn2)n1)c1cc(F)ccc1F` (stereo not drawn) [Example 152, 2-[(4-Chlorophenylsulfonyl)(2,5-difluorophenyl)methyl]-6-(2-pyridin-2-ylethyl)pyridine], the melting point lay within 88 to 89 °C.

Turning to `COc1ccc(-n2ccnc2C(c2cc(F)ccc2F)S(=O)(=O)c2ccc(Cl)cc2)cc1` (stereo not drawn) [Example 31, 2-[[(4-Chlorophenyl)sulfonyl]-(2,5-difluorophenyl)methyl]-1-(4-methoxyphenyl)-1H-imidazole], the melting point was 150 to 151 °C.

The molecule `NCCCNc1cc(C(c2cc(F)ccc2F)S(=O)(=O)c2ccc(Cl)cc2)c(Cl)cn1` (stereo not drawn) (as salt: hydrochloride) [Example 173, N-[5-Chloro-4-[(4-chlorophenylsulfonyl)-(2,5-difluorophenyl)methyl]pyridin-2-yl]propane-1,3-diamine dihydrochloride] gave a melting point of 193 to 195 °C.

In the case of `O=S(=O)(c1ccc(Cl)cc1)C(c1cc(F)ccc1F)C1CCOCC1` (stereo not drawn) [Example 34, 4-[[(4-Chlorophenyl)sulfonyl](2,5-difluorophenyl)methyl]tetrahydropyrane], the melting point lay in the range of 150 to 152 °C.

Molecule `O=C(O)CCNc1cc(C(c2cc(F)ccc2F)S(=O)(=O)c2ccc(Cl)cc2)c(Cl)cn1` (stereo not drawn) (hydrate or solvate) [Example 155, 3-[[5-Chloro-4-[(4-chlorophenylsulfonyl)-(2,5-difluorophenyl)methyl]pyridin-2-yl]amino]propionic acid] showed a melting point of 200 to 205 °C.

Take `O=S(=O)(CCO)Nc1cc(C(c2cc(F)ccc2F)S(=O)(=O)c2ccc(Cl)cc2)c(Cl)cn1` (stereo not drawn) [Example 284, N-[5-Chloro-4-[(4-chlorophenylsulfonyl)(2,5-difluorophenyl)methyl]pyridin-2-yl]-2-hydroxyethanesulfonamide]: the melting point was in the range of 155 to 158 °C.

Molecule `O=C(NCCO)c1ccc(C(c2cc(F)ccc2F)S(=O)(=O)c2ccc(Cl)cc2)nc1` (stereo not drawn) [Example 140, 6-[(4-Chlorophenylsulfonyl)(2,5-difluorophenyl)methyl]-N-(2-hydroxyethyl)nicotinamide] gave a melting point of 179 to 181 °C.

On to `NCCNC(=S)c1ccc(C(c2cc(F)ccc2F)S(=O)(=O)c2ccc(Cl)cc2)nc1` (stereo not drawn) (as salt: hydrochloride) [Example 142, N-(2-Aminoethyl)-6-[(4-chlorophenylsulfonyl)(2,5-difluorophenyl)methyl]thionicotinamide], for which the melting point was 164 to 166 °C.

`O=C(O)/C=C/c1ccc(C(c2cc(F)ccc2F)S(=O)(=O)c2ccc(Cl)cc2)nc1` (stereo not drawn) [Example 135, (E)-3-[6-[(4-Chlorophenylsulfonyl)(2,5-difluorophenyl)methyl]pyridin-3-yl]acrylic acid] yielded a melting point of 236 to 238 °C.

In turn, `CC(C)(C)OC(=O)N1CCC(C(c2cc(F)ccc2F)S(=O)(=O)c2ccc(Cl)cc2)CC1` (stereo not drawn) [Example 37, t-Butyl 4-[[(4-chlorophenyl)sulfonyl](2,5-difluorophenyl)methyl]-1-piperidinecarboxylate] had a melting point of 193 to 196 °C.

In turn, `O=C1NCCCN1c1cc(C(c2cc(F)ccc2F)S(=O)(=O)c2ccc(Cl)cc2)c(Cl)cn1` (stereo not drawn) [Example 190, 1-[5-Chloro-4-[(4-chlorophenylsulfonyl)-(2,5-difluorophenyl)methyl]pyridin-2-yl]tetrahydropyrimidin-2-one] returned a melting point of more than 230 °C.

Turning to `Fc1ccc(F)c(C(Sc2ccc(Cl)cc2)c2ccc(C3OCCO3)cn2)c1` (stereo not drawn) [Example 41, 2-[(4-Chlorophenylthio)-(2,5-difluorophenyl)methyl]-5-(1,3-dioxolan-2-yl)pyridine], the melting point lay in the range of 70 to 73 °C.

The molecule `O=S(=O)(c1ccc(Cl)cc1)C(c1cc(F)ccc1F)c1cc(CO)ncc1Cl` (stereo not drawn) [Example 257, [5-Chloro-4-[(4-chlorophenylsulfonyl)(2,5-difluorophenyl)methyl]pyridin-2-yl]methanol] had a melting point of 164 to 165 °C.

Take `O=C(O)c1cc(C(c2cc(F)ccc2F)S(=O)(=O)c2ccc(Cl)cc2)c(F)cn1` (stereo not drawn) [Example 201, 4-[(4-Chlorophenylsulfonyl)(2,5-difluorophenyl)methyl]-5-fluoropicolinic acid]: the melting point lay within 208 to 209 °C.

`O=C(O)c1cc(C(c2cc(F)ccc2F)S(=O)(=O)c2ccc(Cl)cc2)c(Cl)cn1` (stereo not drawn) [Example 262, 5-Chloro-4-[(4-chlorophenylsulfonyl)(2,5-difluorophenyl)methyl]picolinic acid] yielded a melting point of 94 to 96 °C.

Consider `NC(=O)/C=C/c1ccc(C(c2cc(F)ccc2F)S(=O)(=O)c2ccc(Cl)cc2)nc1` (stereo not drawn) [Example 136, (E)-3-[6-[(4-Chlorophenylsulfonyl)(2,5-difluorophenyl)methyl]pyridin-3-yl]acrylamide], for which the melting point was in the range of 219 to 220 °C.

`O=S(=O)(c1ccc(F)cc1)C(c1cc(F)ccc1F)c1cc(NCCO)ncc1Cl` (stereo not drawn) [Example 179, 2-[[5-Chloro-4-[(2,5-difluorophenyl)-(4-fluorophenylsulfonyl)methyl]pyridin-2-yl]amino]ethanol] came in with a melting point of 157 to 158 °C.

Turning to `Nc1cc(C(c2cc(F)ccc2F)S(=O)(=O)c2ccc(Cl)cc2)c(Br)cn1` (stereo not drawn) [Example 232, [5-Bromo-4-[(4-chlorophenylsulfonyl)(2,5-difluorophenyl)methyl]pyridin-2-yl]amine], the melting point lay within 204 to 206 °C.

`O=C(Nc1nccs1)c1cnc(C(c2cc(F)ccc2F)S(=O)(=O)c2ccc(Cl)cc2)c(F)c1` (stereo not drawn) [Example 128, 6-(4-Chlorophenylsulfonyl)(2,5-difluorophenyl)methyl-5-fluoro-N-thiazol-2-ylnicotinamide] had a melting point of 243 to 245 °C.

In turn, `O=C(O)c1cnc(C(c2cc(F)ccc2F)S(=O)(=O)c2ccc(Cl)cc2)c(F)c1` (stereo not drawn) [Example 127, 6-(4-Chlorophenylsulfonyl)(2,5-difluorophenyl)methyl-5-fluoronicotinic acid] had a melting point of 249 to 251 °C.

For `Cc1ccc(S(=O)(=O)NCC(=O)NCc2ccc(C(c3cc(F)ccc3F)S(=O)(=O)c3ccc(Cl)cc3)nc2)cc1` (stereo not drawn) [Example 70, N-[[6-[(4-Chlorophenylsulfonyl)(2,5-difluorophenyl)methyl]pyridin-3-yl]methyl]-2-(4-methylphenylsulfonylamino)acetamide], the melting point fell in the range of 217 to 218 °C.

On to `Fc1ccc(F)c(C(Sc2ccc(Cl)cc2)c2ccncc2Cl)c1` (stereo not drawn) [Example 53, 3-Chloro-4-[(4-chlorophenylthio)-(2,5-difluorophenyl)methyl]pyridine], for which the melting point fell in the range of 70 to 72 °C.

As for `CC(C)(CO)CNc1cc(C(c2cc(F)ccc2F)S(=O)(=O)c2ccc(Cl)cc2)c(Cl)cn1` (stereo not drawn) [Example 195, 3-[5-Chloro-4-[(4-chlorophenylsulfonyl)(2,5-difluorophenyl)methyl]pyridin-2-ylamino]-2,2-dimethylpropan-1-ol], the melting point is 176 to 178 °C.

`CN1CCC(C(c2ccncc2)S(=O)(=O)c2ccc(Cl)cc2)CC1` (stereo not drawn) [Example 5, 4-[(4-Chlorophenylsulfonyl)(1-methylpiperidin-4-yl)methyl]pyridine] showed a melting point of 176 to 177 °C.

In the case of `O=C1C(C(c2cc(F)ccc2F)S(=O)(=O)c2ccc(Cl)cc2)CCCN1CCCO` (stereo not drawn) [Example 153, 3-[(4-Chlorophenylsulfonyl)(2,5-difluorophenyl)methyl]-1-(3-hydroxypropyl)piperidin-2-one], the melting point was 120 to 121 °C.

`O=S(=O)(c1ccc(Cl)cc1)C(c1cc(F)ccc1F)C1CCSCC1` (stereo not drawn) [Example 35, 4-[[(4-Chlorophenyl)sulfonyl](2,5-difluorophenyl)methyl]tetrahydrothiopyrane] had a melting point of 150 to 152 °C.

On to `Cc1cccnc1C(c1cc(F)ccc1F)S(=O)(=O)c1ccc(Cl)cc1` (stereo not drawn) [Example 14, 2-[[(4-Chlorophenyl)sulfonyl]-(2,5-difluorophenyl)methyl]-3-methylpyridine], for which the melting point lay in the range of 142 to 143 °C.

`O=S(=O)(c1ccc(Cl)cc1)C(c1cc(F)ccc1F)c1cc(Cl)ncc1Cl` (stereo not drawn) (hydrate or solvate) [Example 57, 2,5-Dichloro-4-[(4-chlorophenylsulfonyl)-(2,5-difluorophenyl)methyl]pyridine 0.5 hydrate] came in with a melting point of 147 to 148 °C.

`Cc1cnc(NS(C)(=O)=O)cc1C(c1cc(F)ccc1F)S(=O)(=O)c1ccc(Cl)cc1` (stereo not drawn) [Example 212, N-[4-[(4-Chlorophenylsulfonyl)(2,5-difluorophenyl)methyl]-5-methylpyridin-2-yl]methanesulfonamide]: the melting point lay within 214 to 217 °C.

Molecule `CN1CCN(C(=O)CCc2cnc(C(c3cc(F)ccc3F)S(=O)(=O)c3ccc(Cl)cc3)c(F)c2)CC1.Cl` (stereo not drawn) returned a melting point of 243 to 245 °C.

For the molecule `Cn1c(Cl)cnc1C(c1cc(F)ccc1F)S(=O)(=O)c1ccc(Cl)cc1` (stereo not drawn) [Example 29, 2-[[(4-Chlorophenyl)sulfonyl]-(2,5-difluorophenyl)methyl]-1-methyl-5-chloro-1H-imidazole], the melting point was 179 to 180 °C.

Values taken from patent publication US7932271B2, “Heterocyclic methyl sulfone derivative” (Daiichi Pharmaceutical Co., Ltd., priority 2003, dated 2011).
